Experimental data from patent US20230233500A1, “Gasdermin D (GSDMD) Succination for the Treatment of Inflammatory Disease” (University of Massachusetts, priority 2020, published 2023).
Counter-ions that a name gives are not always drawn.

Experiments:
[1] = test system: Bone marrow-derived macrophages (BMDMs); assay: LPS-nigericin inflammasome activation/pyroptosis in BMDMs; assay type: cell-based, mouse; conditions: for kinetic cell death: SYTOX orange, 0-6 hrs
Description: Human kidney cell line HEK293T was cultured in Dulbecco's modified Eagle's medium supplemented with 10% (v/v) fetal bovine serum, 100 U/ml penicillin and 100 µg/ml streptomycin. Human peripheral blood monocyte cell line, THP1 cells were cultured in RPMI-1640 medium supplemented with 10% (v/v) fetal bovine serum, 100 U/ml penicillin and 100 µg/ml streptomycin. For isolation of BMDMs, tibias and femurs were removed from wild type and GsdmD^−/− mice and bone marrow was flushed with complete DMEM-medium. Cells were plated in medium containing 20% (v/v) conditioned medium of L929 mouse fibroblasts cultured for 7 days at 37° C. in a humidified atmosphere of 5% C02. Medium was replaced every 3 days.
Conditioned media or serum was collected as indicated and IL-1β or TNF-α, were quantified by sandwich ELISA (R&D Systems).
Cells were plated, treated and incubated in phenol red free medium. Following treatment medium was collected and assessed for LDH release using the CytoTox96 non-radioactive cytotoxicity assay (Promega) as per manufacturer's instructions. Kinetic cell death assays were performed using SytoxOrange and the Biotek Cytation5.
For noncanonical inflammasome activation, cells were primed with […] Pam3CSK4 (Invivogen) for 2 h, followed by transfection of LPS (2 μg/ml) using Lipofectamine 2000 for 16 hours.
Primary BMDMs from WT or GsdmD^−/− mice were cultured in 12-well plates (1×10^6 cells per ml; 1 ml) or 10 cm dishes (2×10^6 cells per ml; 10 ml). HEK293T cells (2.5×10^5 cells per ml; 3 ml) were cultured in 6-well plates and transfected with FLAG-tagged GSDMD constructs where indicated. For cell lysate analysis cells were lysed directly in 1× Lamelli sample buffer. For native gel analysis cells were lysed in NP-40 lysis buffer (50 mM Tris-HCl, pH 7.4, containing 150 mM NaCl, 0.5% (w/v) IgePal, 50 mM NaF, 1 mM Na3VO4, 1 mM dithiothreitol, 1 mM phenylmethylsulfonyl fluoride and protease inhibitor cocktail. For immunoprecipitation of GSDMD, cells were treated as indicated and then collected in 500 μl RIPA buffer, followed by incubation for 15 min on ice. Lysates were incubated with GSDMD antibody and protein A-protein G-agarose was added to each sample, followed by incubation overnight at 4° C. Immunoprecipitates were collected by centrifugation and washed four times with 1 ml of RIPA buffer. Immunprecipates were eluted from beads using 1× sample buffer. Samples were resolved by SDS-PAGE and stained using simply blue safe stain or transferred to nitrocellulose membranes and analyzed by immunoblot. Immunoreactivity was visualized by the Odyssey Imaging System (LICOR Biosciences). For immunoblotting of IL-1β in cell supernatants, conditioned medium was collected and filtered using filter spin columns to reduce salt and remove abundant serum proteins. Filtrates were added to 4×SDS-PAGE sample buffer and resolved by SDS-PAGE for immunoblot analysis. GSDMD (ab209845) and GSDME antibodies were from abcam (ab215191). Caspase 1 antibody was from adipogen. Fumarase antibody was from cell signalling and anti-β-actin (AC-15; A1978) were from Sigma; anti-mouse IRDye™ 680 (926-68070) and anti-rabbit IRDye™ 800 (926-32211) were from LI-COR Biosciences.
Numerous studies have shown that cell metabolism impacts inflammatory responses. LPS activated macrophages switch from oxidative phosphorylation to aerobic glycolysis. Krebs cycle intermediates such as succinate and itaconate accumulate and moonlight as positive and negative regulators of inflammatory gene expression (3-8). To determine if Krebs cycle intermediates modulate pyroptosis, we tested their effect on inflammasome responses. Bone marrow-derived macrophages (BMDMs) were primed with LPS (2 hr) before being exposed to metabolites and then exposed to nigericin (Nig) and inflammasome activation/pyroptosis measured. The metabolites were added after LPS to avoid any impact on transcription. […] Fumarate impaired kinetic cell death (0-6 hrs) (FIG. 1E, FIG. 5A). […]

[2] = test system: Mefv^V726/V726 mouse model; assay: Familial Mediterranean Fever Mefv V726/V726 mouse model; assay type: in vivo; conditions: for weight (weight loss / weight gain): diet containing dimethyl fumarate (100 mg/kg/day; 0.1% DMF) for 6 weeks; for GSDMD-N (GsdmD-p30) formation in spleen: immunoblot
Description: FIGS. 15A-E. Fumarate alleviates FMF. (A-D) Weight gain (A), spleen weight (B), ELISA of serum IL-1B and immunoblot of spleen GSDMD (D) liver H&E (E) from Mefv726/726 receiving vehicle diet or a diet containing dimethyl fumarate (100 mg/kg/day) for 6 weeks. Data points indicative of individual mice. *, P<0.05 ***, P<0.001 (t-test or Two-way ANOVA). Error bars show means±SEM.
All animal experiments were approved by the Institutional Animal Care Use Committees at the University of Massachusetts Medical School. Animal were kept in specific pathogen free (SPF) environment. Male and female C57/BL6 and Gsdmd−/− mice were used. Gsdmd−/− mice were generated as previously described (22). MefvV726/V726 mice were a gift from Prof. Daniel Kastner (23). Sample sizes used are in line with other similar published studies. All animals were used at age 8-12 weeks.
DMF embedded mouse diet was formulated by Lab Diets®. DMF was added to a base diet of laboratory lab diet 5001 at a dose 100 mg/kg/day of consumption. Mice received the control base diet or the DMF containing diet for 6 weeks.

[3] = diet containing dimethyl fumarate for 6 weeks
[4] = diet containing dimethyl fumarate for 6 weeks, listed as DMF

Structure (SMILES): COC(=O)/C=C/C(=O)OC [Fumarate, Dimethyl fumarate]
- GSDMD oligomerization ([1]; BMDMs pre-treated, LPS-Nig, native and reduced lysates): decreased
- LPS-Nig-induced release of LDH ([1]; WT BMDMs, LPS 2 hr, compound 1 hour (fumarate 25 μM), then nigericin): potently blocked
- LPS-Nig-induced release of IL-1β ([1]; WT BMDMs, LPS 2 hr, compound 1 hour (fumarate 25 μM), then nigericin, ELISA): potently blocked
- kinetic cell death ([1]; WT BMDMs, LPS-Nig): impaired
- kinetic cell death ([1]; WT BMDMs, LPS-Nig, listed as fumarate): inhibited cell death
- formation of GSDMD-N ([1]; WT BMDMs, LPS-Nig, immunoblot): blocked
- cell death when added after Nig treatment ([1]; WT BMDMs, fumarate 25 μM 15 minutes after each nigericin timepoint): impaired
- weight (weight loss / weight gain) [2]: alleviated
- weight (weight loss / weight gain) ([2]; listed as DMF): increased weight
- IL-1β secretion (serum) [2, 3]: alleviated
- spleen size (splenomegaly) [2, 3]: alleviated
- liver pathology ([2]; diet containing dimethyl fumarate for 6 weeks, H&E): alleviated
- GSDMD-N (GsdmD-p30) formation in spleen [2, 3]: alleviated
- GSDMD-N (GsdmD-p30) formation in spleen [2, 4]: reduced levels
- spleen size (splenomegaly) [2, 4]: reduced spleen size
- fibrosis of liver and lung ([2]; diet including 0.1% DMF): reduction in fibrosis
- runting ([2]; diet including 0.1% DMF): rescue of runting
